Where a SMILES comes first, the peptide text is derived from it.
T1: Solute carrier family 15 member 2 (Homo sapiens, UniProt Q16348)
T1 sequence (Q16348 whole entry): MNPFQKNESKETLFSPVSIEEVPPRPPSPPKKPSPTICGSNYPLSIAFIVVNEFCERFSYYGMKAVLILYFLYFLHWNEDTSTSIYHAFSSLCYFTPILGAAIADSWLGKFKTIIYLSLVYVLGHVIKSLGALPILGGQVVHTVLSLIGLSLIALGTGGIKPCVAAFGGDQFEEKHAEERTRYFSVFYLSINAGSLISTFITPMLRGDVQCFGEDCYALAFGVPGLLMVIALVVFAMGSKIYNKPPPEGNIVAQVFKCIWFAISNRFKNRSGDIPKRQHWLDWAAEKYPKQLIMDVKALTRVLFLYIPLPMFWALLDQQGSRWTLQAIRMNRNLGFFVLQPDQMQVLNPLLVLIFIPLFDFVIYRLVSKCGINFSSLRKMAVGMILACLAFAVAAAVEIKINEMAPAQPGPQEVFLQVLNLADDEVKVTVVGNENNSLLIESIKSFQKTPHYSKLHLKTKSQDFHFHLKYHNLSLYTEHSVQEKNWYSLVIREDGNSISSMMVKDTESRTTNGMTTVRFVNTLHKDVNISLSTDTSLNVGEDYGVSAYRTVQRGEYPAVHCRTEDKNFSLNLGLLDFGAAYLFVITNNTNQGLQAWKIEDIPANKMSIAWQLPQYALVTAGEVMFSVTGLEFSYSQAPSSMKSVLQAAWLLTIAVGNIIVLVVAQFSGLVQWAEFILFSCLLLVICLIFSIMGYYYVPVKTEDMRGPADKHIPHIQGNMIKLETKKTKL

T2: Solute carrier family 15 member 1 (Homo sapiens, UniProt P46059)
T2 sequence (P46059 whole entry): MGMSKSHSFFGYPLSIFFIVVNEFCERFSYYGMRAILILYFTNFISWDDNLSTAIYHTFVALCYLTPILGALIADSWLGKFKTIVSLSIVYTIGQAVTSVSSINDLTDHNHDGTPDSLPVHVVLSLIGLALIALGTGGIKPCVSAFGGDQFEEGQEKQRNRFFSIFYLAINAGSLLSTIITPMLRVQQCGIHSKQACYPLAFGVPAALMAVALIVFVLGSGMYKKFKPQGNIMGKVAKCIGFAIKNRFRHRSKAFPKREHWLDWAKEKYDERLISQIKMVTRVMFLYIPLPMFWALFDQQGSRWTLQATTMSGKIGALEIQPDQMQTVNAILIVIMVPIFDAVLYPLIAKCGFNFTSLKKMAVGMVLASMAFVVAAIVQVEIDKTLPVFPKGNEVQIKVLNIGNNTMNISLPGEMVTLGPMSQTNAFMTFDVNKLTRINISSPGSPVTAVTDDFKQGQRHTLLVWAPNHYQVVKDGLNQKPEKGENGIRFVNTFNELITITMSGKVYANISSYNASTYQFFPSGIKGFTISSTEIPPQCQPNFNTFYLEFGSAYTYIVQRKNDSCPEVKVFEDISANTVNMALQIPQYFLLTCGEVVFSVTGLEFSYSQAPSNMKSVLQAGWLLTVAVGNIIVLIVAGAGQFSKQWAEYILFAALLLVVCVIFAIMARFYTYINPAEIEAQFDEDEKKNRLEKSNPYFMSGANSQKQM

B1: Solute carrier family 15 member 2 (Homo sapiens), Q16348 (protein)
chain: MNPFQKNESKETLFSPVSIEEVPPRPPSPPKKPSPTICGSNYPLSIAFIVVNEFCERFSYYGMKAVLILYFLYFLHWNEDTSTSIYHAFSSLCYFTPILGAAIADSWLGKFKTIIYLSLVYVLGHVIKSLGALPILGGQVVHTVLSLIGLSLIALGTGGIKPCVAAFGGDQFEEKHAEERTRYFSVFYLSINAGSLISTFITPMLRGDVQCFGEDCYALAFGVPGLLMVIALVVFAMGSKIYNKPPPEGNIVAQVFKCIWFAISNRFKNRSGDIPKRQHWLDWAAEKYPKQLIMDVKALTRVLFLYIPLPMFWALLDQQGSRWTLQAIRMNRNLGFFVLQPDQMQVLNPLLVLIFIPLFDFVIYRLVSKCGINFSSLRKMAVGMILACLAFAVAAAVEIKINEMAPAQPGPQEVFLQVLNLADDEVKVTVVGNENNSLLIESIKSFQKTPHYSKLHLKTKSQDFHFHLKYHNLSLYTEHSVQEKNWYSLVIREDGNSISSMMVKDTESRTTNGMTTVRFVNTLHKDVNISLSTDTSLNVGEDYGVSAYRTVQRGEYPAVHCRTEDKNFSLNLGLLDFGAAYLFVITNNTNQGLQAWKIEDIPANKMSIAWQLPQYALVTAGEVMFSVTGLEFSYSQAPSSMKSVLQAAWLLTIAVGNIIVLVVAQFSGLVQWAEFILFSCLLLVICLIFSIMGYYYVPVKTEDMRGPADKHIPHIQGNMIKLETKKTKL

Experiments:
Format in all cases: functional, cell-based
[1] = biological target: T1, Solute carrier family 15 member 2; experiment: TP_TRANSPORTER: inhibition of Gly-Sar uptake in PEPT2-expressing HeLa cells
[2] = biological target: T2, Solute carrier family 15 member 1; experiment: TP_TRANSPORTER: inhibition of Gly-Sar uptake in PEPT1-expressing HeLa cells
[3] = substrate: CN(CC(=O)O)C(=O)CN; experiment: TP_TRANSPORTER: uptake in PEPT2-expressing HeLa cells

Molecule | Ki [1] [µM] | Ki [2] [µM] | Km [3] [µM]
C[C@H](N)C(=O)N[C@@H](CCCCN)C(=O)O (H-Ala-Lys-OH) | 11 | 117 | –
NCCCC[C@H](NC(=O)[C@@H](N)CC(=O)O)C(=O)O (H-Asp-Lys-OH) | 8 | 108 | –
C[C@H](NC(=O)[C@@H](N)CCCCN)C(=O)O (H-Lys-Ala-OH) | 23 | 419 | –
C[C@H](N)C(=O)N[C@@H](CC(=O)O)C(=O)O (H-Ala-Asp-OH) | 18 | 78 | –
C[C@H](N)C(=O)N[C@@H](C)C(=O)O (H-Ala-Ala-OH) | 6 | 78 | –
B1 | – | – | 74

Source: ChEMBL document CHEMBL2073955, “Proton/peptide cotransporter (PEPT 2) from human kidney: functional characterization and chromosomal localization” (Biochim Biophys Acta, 1995)
